# Assay results taken from patent publication US20060167109A1, “Methods of reducing rhinovirus contagion and related compositions” (priority 2002, published 2006).
# Values joined by “and” are separate entries in the source; they are usually repeats but may differ in a detail not shown here. Equal entries are not always repeated. Where two headings read alike, the source gives them in different places.
# Assays:
# [1] = Aqueous solubility; assay type: physicochemical
# [2] = test system: 10 other human viral pathogens; assay: Antiviral specificity, viral cytopathic effect assays; assay type: cell-based
# [3] = Single dose oral pharmacokinetics in fed healthy young subjects; assay type: in vivo, human; settings: for half-life: po, 400 mg
# [4] = Cell toxicity (MTT) assay of cell growth; settings: human, HeLa (WIS) cells; methyltetrazolium dye-based assay of cell growth
# Method: To properly evaluate antiviral activity in cell culture assays, the 50% cytotoxic concentration (CC50) of the test compound was first determined so that any inhibitory effects on virus replication could be distinguished from effects due to compound cytotoxicity. The CC50 of pleconaril was determined using a methyltetrazolium dye-based assay of cell growth (Pevear, et al., 1999, Antimicrob. Agents Chemother., 43, 2109-2115).
# Pleconaril was solubilized in dimethyl sulfoxide (DMSO). After dilution to the desired drug concentration, the final DMSO concentration in assays was 0.25%.
# [5] = test system: HRV serotype 3; assay: Reversibility of pleconaril binding; assay type: cell-based, human rhinovirus
# Method: (§1) The first question presented is whether pleconaril could bind to human rhinoviruses irreversibly. Various HRVs were incubated overnight at 4° C. with pleconaril at a concentration approximately 10 times the IC50 value. Parallel samples were incubated in medium with 0.5% dimethyl sulfoxide (DMSO) alone. The next day, samples were diluted 10,000-fold into pleconaril-free medium and incubated an additional 24 hrs at 4° C., followed by titration by plaque assay.
# (§2) After 24 hours, virus samples were diluted 10,000-fold in culture medium and incubated an additional 24 hours at 4° C. Virus titers in the DMSO- and pleconaril-treated samples were then determined by plaque assay in the appropriate cell line as described below.
# (§3) In some experiments, virus titers were determined by plaque assay. Cells in 6 well plates were infected with 1 mL of 10-fold dilutions of virus in duplicate for 1 hour at the appropriate incubation temperature. The inoculum was then removed and the cells were overlaid with 3 mL of agarose overlay medium (Eagles minimum essential medium (Life Technologies, Grand Island, N.Y.) with 50 mM Hepes buffer, pH 7.2, 5% FBS, antibiotics, and 1.5% SeaPlaque (HRVs)). The HRV overlay medium was further supplemented with 30 mM MgCl2 and 15 μg/mL DEAE dextran. […] After rinsing and drying, plaques were read manually.
# [6] = test system: HRV serotype 89; assay: Reversibility of pleconaril binding; assay type: cell-based, human rhinovirus
# Method: as §1, §2, §3
# [7] = test system: HRV serotype 2; assay: Reversibility of pleconaril binding; assay type: cell-based, human rhinovirus
# Method: as §1, §2, §3
# [8] = test system: HRV serotype 50; assay: Reversibility of pleconaril binding; assay type: cell-based, human rhinovirus
# Method: as §1, §2, §3
# [9] = test system: HRV serotype 14; assay: Reversibility of pleconaril binding; assay type: cell-based, human rhinovirus
# Method: as §1, §2, §3
# [10] = test system: HRV serotype 1A; assay: Reversibility of pleconaril binding; assay type: cell-based, human rhinovirus
# Method: as §1, §2, §3
# [11] = test system: HRV serotype 5; assay: Reversibility of pleconaril binding; assay type: cell-based, human rhinovirus; settings: about 10 times IC50, then diluted 10,000-fold, plaque assay
# Method: as §1, §2, §3
# [12] = Pleconaril concentration in nasal mucus, clinical studies 843-043 and 843-044; settings: diluted samples, individual subjects
# Method: Two hundred (200) μl of acetonitrile was added to 200 μl of each nasal mucus standard and sample. The samples and standards were vortex mixed and then centrifuged at 25° C. for 10 minutes at 2500 rpm. 170 μl of supernatant was removed from each standard and sample. Then, 30 μl of water was added. The mixture was vortex mixed and 40 μl was injected for quantitative analysis of pleconaril.
# Standards and samples were analyzed via LC/MS/MS. • Mass Spec: Micromass Quattro • LC: Alliance 2790 • Mobile Phase: 85% Acetonitrile/15% 2 mM Ammonium Acetate (0.2% formic acid) • Flow Rate: 0.5 ml/min • Analytical Column: Luna C18 (2) 5μ, 50×3.00 mm (Phenomenex) • Source: ESI (Electrospray Ionization) • Ion Mode: Positive • MRM transition: 382>82
# The Masslyns quantitation package was used to analyze the results. The method used was a linear (1/× weighted) external standard method of calibration.
# Studies 843-043 and 843-044 were Phase III clinical trials for the acute treatment of viral respiratory infection (common cold) in which pleconaril was administered for five days (400 mg TID). These samples were selected based on the plasma concentrations measured on Day 3 of 6 (plasma concentrations at or above 1 μg/ml).
# Nasal mucus samples were diluted with 2 ml of transport media during processing and prior to quantitative analysis.
# [13] = test system: respiratory syncytial virus, strain Long (RSV-A); assay: Virus cytopathic effect assay for other viruses; assay type: cell-based; settings: human respiratory syncytial virus, HEp-2
# Method: (§4) The sensitivity of non-picornaviruses to pleconaril was determined in virus cytopathic effect assays similar to the HRV assay for the following viruses: respiratory syncytial virus, strain Long (RSV-A) and herpes simplex virus type II, strain Curtis (HSV-2) on HEp2 cells; influenza virus, strain WSN (FLUA) on MDBK cells; dengue virus type 2, strain New Guinea (DEN-2), and measles virus, strain Edmonston (MeV) on Vero cells; human adenovirus, type 5 (HAdV-5) on HeLa cells (at 33° C.); human coronavirus, strain 229E (Corona) on MRC-5 cells (at 33° C.); and mumps virus, strain Enders (Mumps), reovirus type 1, strain Lang (REOV-1), and parainfluenza virus type 3, strain C243 (HPIV-3) on LLC-MK2d cells. All specificity assays were performed at 37° C. and 5% CO2 except where noted above.
# [14] = test system: reovirus type 1, strain Lang (REOV-1); assay: Virus cytopathic effect assay for other viruses; assay type: cell-based; settings: Mammalian orthoreovirus 1
# Method: as §4
# [15] = test system: herpes simplex virus type II, strain Curtis (HSV-2); assay: Virus cytopathic effect assay for other viruses; assay type: cell-based; settings: Human alphaherpesvirus 2, HEp-2
# Method: as §4
# [16] = test system: mumps virus, strain Enders (Mumps); assay: Virus cytopathic effect assay for other viruses; assay type: cell-based; settings: Mumps orthorubulavirus
# Method: as §4
# [17] = test system: influenza virus, strain WSN (FLUA); assay: Virus cytopathic effect assay for other viruses; assay type: cell-based; settings: unidentified influenza virus, MDBK
# Method: as §4
# [18] = test system: measles virus, strain Edmonston (MeV); assay: Virus cytopathic effect assay for other viruses; assay type: cell-based; settings: Measles morbillivirus, Vero
# Method: as §4
# [19] = test system: human coronavirus, strain 229E (Corona); assay: Virus cytopathic effect assay for other viruses; assay type: cell-based; settings: Human coronavirus 229E, MRC5; Corona on MRC-5 cells at 33° C.
# Method: as §4
# [20] = test system: dengue virus type 2, strain New Guinea (DEN-2); assay: Virus cytopathic effect assay for other viruses; assay type: cell-based; settings: Vero
# Method: as §4
# [21] = test system: parainfluenza virus type 3, strain C243 (HPIV-3); assay: Virus cytopathic effect assay for other viruses; assay type: cell-based; settings: Human respirovirus 3
# Method: as §4
# [22] = test system: human adenovirus, type 5 (HAdV-5); assay: Virus cytopathic effect assay for other viruses; assay type: cell-based; settings: Human mastadenovirus C, HeLa
# Method: as §4
# [23] = human, plasma, fed healthy young subjects (N = 24), single oral dose 400 mg, mean
smiles,measurement,setting,value
"Cc1cc(CCCOc2c(C)cc(-c3noc(C(F)(F)F)n3)cc2C)on1 [pleconaril, 3-[3,5-dimethyl-4-[3-(3-methyl-5-isoxazolyl)propoxy]phenyl]-5-(trifluoromethyl)-1,2,4-oxadiazole]",solubility,[1],0.02 µg/mL
same,activity against unrelated viruses,[2],no activity
same,IC50,"[2]; Homo sapiens, all ten viruses",> 12.5 µM
same,CL/F,"[3]; fed healthy young subjects (N = 24), single oral dose 400 mg, mean",16.8 L/h
same,alpha half-life,"[3]; following oral absorption, alpha disposition phase",~2.8 h
same,half-life,"[3]; human, plasma, fed healthy young subjects (N = 24), single oral dose 400 mg, mean, read-out: T1/2 (converted)",186 h
same,half-life,"[3]; human, plasma, following oral absorption, alpha disposition phase, read-out: alpha half-life",2 to 3 h
same,half-life,"[3]; human, plasma, following oral absorption, read-out: terminal half-life (converted)",~180 h
same,AUC(0-inf),[3]; [23],29200 ng·h/mL
same,Cmax,[3]; [23],2300 ng/mL
same,Tmax,[3]; [23],3 h
same,Vd/F,"[3]; human, plasma, fed healthy young subjects (N = 24), single oral dose 400 mg, mean, read-out: Vz/F",4110 L
same,CC50,[4],12.5 to 25 µM
same,reversibility of binding to the virion,[5]; HRV-3,reversible upon dilution
same,% Recovery of input infectious virus (% SD),"[5]; serotype 3, about 10 times IC50, then diluted 10,000-fold, plaque assay",92.8 (40.4) %
same,reversibility of binding to the virion,[6]; HRV serotype 89,binds irreversibly
same,% Recovery of input infectious virus (% SD),"[6]; serotype 89, about 10 times IC50, then diluted 10,000-fold, plaque assay",9.9 (100) %
same,reversibility of binding to the virion,[7]; HRV-2,reversible upon dilution
same,% Recovery of input infectious virus (% SD),"[7]; serotype 2, about 10 times IC50, then diluted 10,000-fold, plaque assay",65.8 (51.3) %
same,reversibility of binding to the virion,[8]; HRV serotype 50,binds irreversibly
same,% Recovery of input infectious virus (% SD),"[8]; serotype 50, about 10 times IC50, then diluted 10,000-fold, plaque assay",11.9 (40) %
same,reversibility of binding to the virion,[9]; HRV serotype 14,binds irreversibly
same,% Recovery of input infectious virus (% SD),"[9]; serotype 14, about 10 times IC50, then diluted 10,000-fold, plaque assay",16.4 (33.9) %
same,reversibility of binding to the virion,[10]; HRV-1A,reversible upon dilution
same,% Recovery of input infectious virus (% SD),"[10]; serotype 1A, about 10 times IC50, then diluted 10,000-fold, plaque assay",85.4 (52.8) %
same,% Recovery of input infectious virus (% SD),[11],118 (53.5) %
same,Pleconaril Concentration (Nasal Mucus),"[12]; Study 43, Day 3, 400 mg TID for five days",26.36 ng/mL and 10.22 ng/mL and 2.46 ng/mL and 1.20 ng/mL
same,Pleconaril Concentration (Nasal Mucus),"[12]; Study 43, Day 6, 400 mg TID for five days",BQL and 2.21 ng/ml and 33.93 ng/ml and 79.38 ng/ml
same,Pleconaril Concentration (Nasal Mucus),"[12]; Study 44, Day 3, 400 mg TID for five days",BQL and 23.88 ng/ml and 2.51 ng/ml and 6.98 ng/ml
same,Pleconaril Concentration (Nasal Mucus),"[12]; Study 44, Day 6, 400 mg TID for five days",1.77 ng/mL and 2.43 ng/mL
same,concentration at 6 day,"[12]; human, nasal mucus, oral, 400 mg TID, Pleconaril Concentration (Nasal Mucus), Study 44, Day 6, 400 mg TID for five days",1.68 ng/mL
same,IC50,[13],> 12.5 µM
same,IC50,[14],> 12.5 µM
same,IC50,[15],> 12.5 µM
same,IC50,[16],> 12.5 µM
same,IC50,[17],> 12.5 µM
same,IC50,[18],> 12.5 µM
same,IC50,[19],> 12.5 µM
same,IC50,[20],> 12.5 µM
same,IC50,[21],> 12.5 µM
same,IC50,[22],> 12.5 µM
